Legend:
[1] = test system: peripheral blood mononuclear cells (PBMC) stimulated with CD3/CD28; assay: Cytokine production by PBMCs stimulated with CD3/CD28 for 24 hours, Bio-plex Cytokine Assay; assay type: cell-based, human
Protocol: To induce production of cytokines, PBMCs, isolated from peripheral blood of 10 normal healthy donors, are stimulated for 24 hours with the T cell stimulant CD3/CD28. Cytokine production is analyzed using a Bio-plex Cytokine Assay. The Bio-Plex technology is based on antibody-antigen interactions, wherein fluorescently labeled beads conjugated with antibody directed against the cytokine of interest bind target cytokine to the bead. This bead-cytokine complex is then exposed to a biotinylated detection antibody and a streptavidin-PE (phycoerythrin) reporter molecule. The signal from the reporter molecule is directly proportional to the amount of cytokine present, thus enabling cytokine quantification.
Each of the T cell-derived cytokines quantified in the experiment is described in the following table:
A t-test (paired sample, two-tailed) is performed in which a broad range of type 1 and type 2 cytokines are evaluated from cultures with HMB compared to cultures and without HMB.

[2] = test system: stress; assay: Working examples: individuals with psychological, surgical or pre-surgical stress given HMB; assay type: in vivo, human; details: person
Protocol: A person suffering from severe symptoms of psychological stress as a result of a burn injury is administered 500 mg (Nutritional Liquid #1) of HMB 4 times a week for a year. One year later the symptoms of psychological stress are reduced.
A person suffering from symptoms of surgical stress is administered 200 mg of HMB (Nutritional Liquid #2) 7 times a week for 2 months. Two months later the symptoms of surgical stress are reduced.
A person suffering from symptoms of pre-surgical stress is administered 200 mg of HMB (capsules) once a day for 3 weeks preceding the individual's scheduled surgery. At the end of the 3 weeks, symptoms of pre-surgical stress are reduced.

[3] = test system: kidney tumors; assay: Working example: individual treated for kidney tumors given HMB; assay type: in vivo, human; details: person; 750 mg HMB (capsules) four times a week for a year
Protocol: A person diagnosed with and has been treated for kidney tumors is administered 750 mg of HMB (capsules) four times a week for a year.

[4] = test system: seasonal allergies; assay: Working examples: individuals having or at risk for seasonal allergies given HMB; assay type: in vivo, human
Protocol: An individual who suffers from seasonal allergies in the spring is given 0.25-1 g of HMB (Nutritional Liquid #5) four times a week for a year. The symptoms of seasonal allergies are reduced the following spring.
The individual is administered 0.1-1.5 g of HMB (Nutritional Liquid #3) once a day for 6 months.

[5] = test system: melanoma; assay: Working example: individual treated for melanoma given HMB; assay type: in vivo, human; details: person; 1 g HMB (Nutritional Liquid #1) 4 times a week for a year
[6] = test system: respiratory tract infections; assay: Working examples: respiratory infections in individuals given HMB; assay type: in vivo, human; details: person recovered from pneumonia; 250 mg HMB (Nutritional Liquid #1) once a day for 6 months
Protocol: A person, after conventional treatment for and recovery from pneumonia, is administered 250 mg of HMB (Nutritional Liquid #1) once a day for 6 months.
A person is training for the New York Marathon. During their training period and for 3 months following the event they take two servings per day of Nutritional formula #6 (containing 1 gram HMB per serving).

[7] = test system: asthma; assay: Working examples: individuals having or at risk for asthma given HMB; assay type: in vivo, human
Protocol: A person who normally has four exacerbations of asthma per year is administered 1-10 g of HMB (Nutritional Liquid #5) four times a week for a year.
A person suffering from moderate persistent asthma is tested to determine the individual's FEV1 percentage value and the value is recorded.
A person suffering from mild intermittent asthma is tested to determine the individual's FEV1 percentage value and a value of 83% is recorded. The individual is then administered 1.5-6 g of HMB 4 times (Nutritional Liquid #5) a week for a year. One year later the individual's FEV1 remains above 80% and symptoms of asthma are reduced.
The individual is administered 250 mg of HMB (Nutritional Liquid #4) once a day for 6 months.

[8] = test system: ovarian cancer; assay: Working example: individual after chemotherapy for ovarian cancer given HMB; assay type: in vivo, human; details: person after chemotherapy; 2-10 g HMB (Nutritional Liquid #1) four times a week for a year
Protocol: A person who has undergone chemotherapy for ovarian cancer is administered 2-10 g of HMB (Nutritional Liquid #1) four times a week for a year.

[9] = 1 mM, 5 mM and 10 mM HMB, FIG. 3
[10] = 5 mM and 10 mM HMB, PBMC, CD3/CD28, 24 hours, vs no HMB, FIG. 1
[11] = PBMC, CD3/CD28, 24 hours, vs no HMB, FIG. 1
[12] = PBMC, CD3/CD28, 24 hours, vs no HMB, FIG. 2
[13] = person, moderate persistent asthma, 5-10 g HMB (Nutritional Liquid #5) 4 times a week for a year

CC(C)(O)CC(=O)O [HMB, β-hydroxy-β-methylbutyrate]
IL-2 production relative to IL-5 production [1, 9]: increased
IL-2 production relative to IL-13 production [1, 9]: increased
IL-2 production relative to IL-4 production ([1]; 5 mM and 10 mM HMB, FIG. 3): Increases
IL-2 production relative to IL-10 production ([1]; 5 mM and 10 mM HMB, FIG. 3): Increases
IL-12 production relative to IL-4 ([1]; 5 mM and 10 mM HMB, FIG. 4): Increases
IL-12 production relative to IL-5 ([1]; 5 mM and 10 mM HMB, FIG. 4): Increases
IL-12 production relative to IL-10 ([1]; 5 mM and 10 mM HMB, FIG. 4): Increases
IL-12 production relative to IL-13 ([1]; 5 mM and 10 mM HMB, FIG. 4): Increases
IFNγ production relative to IL-5 ([1]; 5 mM and 10 mM HMB, FIG. 5): increases
IL-2 production (type 1 cytokine) ([1]; 5 mM and 10 mM HMB, PBMC of 10 healthy donors, CD3/CD28, 24 hours, vs no HMB, FIG. 1): Significant dose response increases
IFNγ production (type 1 cytokine) [1, 10]: Significant dose response increases
IL-12 production (type 1 cytokine) [1, 10]: Significant dose response increases
IFNγ production relative to IL-4 ([1]; 10 mM HMB, FIG. 5): Increases
IFNγ production relative to IL-10 ([1]; 10 mM HMB, FIG. 5): Increases
IL-10 production (type 2 cytokine) ([1]; 10 mM HMB, PBMC, CD3/CD28, 24 hours, vs no HMB, FIG. 2): significant decrease
GC-CSF production [1, 11]: does not significantly affect
TNFα production [1, 11]: does not significantly affect
IL-4 production (type 2 cytokine) [1, 12]: does not significantly affect
IL-5 production (type 2 cytokine) [1, 12]: does not significantly affect
IL-13 production (type 2 cytokine) [1, 12]: does not significantly affect
symptoms of surgical stress, two months later ([2]; 200 mg HMB (Nutritional Liquid #2) 7 times a week for 2 months): reduced
symptoms of pre-surgical stress at the end of 3 weeks ([2]; 200 mg HMB (capsules) once a day for 3 weeks before surgery): reduced
symptoms of psychological stress after burn injury, one year later ([2]; 500 mg HMB (Nutritional Liquid #1) 4 times a week for a year): reduced
spread of kidney tumor six months later [3]: has not spread
symptoms of seasonal allergies the following spring ([4]; individual, 0.25-1 g HMB (Nutritional Liquid #5) four times a week for a year): reduced
signs of seasonal allergies six months later ([4]; person with family history, no signs at start, 0.1-1.5 g HMB (Nutritional Liquid #3) once a day for 6 months): still shows no signs
spread of melanoma six months later [5]: has not spread
respiratory tract infections, including recurrence of pneumonia, during six months [6]: remains free of respiratory tract infections
signs of symptoms of asthma six months later ([7]; person with family history, no signs at start, 250 mg HMB (Nutritional Liquid #4) once a day for 6 months): still shows no signs
FEV1 one year later ([7]; person, mild intermittent asthma, baseline FEV1 83%, 1.5-6 g HMB (Nutritional Liquid #5) 4 times a week for a year): above 80%
symptoms of asthma one year later ([7]; person, mild intermittent asthma, 1.5-6 g HMB (Nutritional Liquid #5) 4 times a week for a year): reduced
FEV1 one year later [7, 13]: has not decreased
symptoms of asthma one year later [7, 13]: reduced
asthma exacerbation frequency ([7]; person, normally four exacerbations per year, 1-10 g HMB (Nutritional Liquid #5) four times a week for a year): decreases to once a year
return of ovarian cancer one year later [8]: has not returned
